Laboratory results published in paper PMC3914206.

Tests used:
Format in all cases: binding
Conditions in all cases: Compound Concentration 10 µM
[1] = target: T1, panel of 442 kinases (Homo sapiens, UniProt Q96GD4)
T1 construct: purchased KINOMEscan
From the text: (§1) We assessed the selectivity of members of this scaffold using the KINOMEscan methodology across a near comprehensive panel of 442 kinases [[18,27]].

[2] = target: T2, panel of 442 kinases (Homo sapiens, UniProt P42336, H1047Y)
T2 construct: purchased KINOMEscan
T2 sequence (P42336 whole entry H1047Y): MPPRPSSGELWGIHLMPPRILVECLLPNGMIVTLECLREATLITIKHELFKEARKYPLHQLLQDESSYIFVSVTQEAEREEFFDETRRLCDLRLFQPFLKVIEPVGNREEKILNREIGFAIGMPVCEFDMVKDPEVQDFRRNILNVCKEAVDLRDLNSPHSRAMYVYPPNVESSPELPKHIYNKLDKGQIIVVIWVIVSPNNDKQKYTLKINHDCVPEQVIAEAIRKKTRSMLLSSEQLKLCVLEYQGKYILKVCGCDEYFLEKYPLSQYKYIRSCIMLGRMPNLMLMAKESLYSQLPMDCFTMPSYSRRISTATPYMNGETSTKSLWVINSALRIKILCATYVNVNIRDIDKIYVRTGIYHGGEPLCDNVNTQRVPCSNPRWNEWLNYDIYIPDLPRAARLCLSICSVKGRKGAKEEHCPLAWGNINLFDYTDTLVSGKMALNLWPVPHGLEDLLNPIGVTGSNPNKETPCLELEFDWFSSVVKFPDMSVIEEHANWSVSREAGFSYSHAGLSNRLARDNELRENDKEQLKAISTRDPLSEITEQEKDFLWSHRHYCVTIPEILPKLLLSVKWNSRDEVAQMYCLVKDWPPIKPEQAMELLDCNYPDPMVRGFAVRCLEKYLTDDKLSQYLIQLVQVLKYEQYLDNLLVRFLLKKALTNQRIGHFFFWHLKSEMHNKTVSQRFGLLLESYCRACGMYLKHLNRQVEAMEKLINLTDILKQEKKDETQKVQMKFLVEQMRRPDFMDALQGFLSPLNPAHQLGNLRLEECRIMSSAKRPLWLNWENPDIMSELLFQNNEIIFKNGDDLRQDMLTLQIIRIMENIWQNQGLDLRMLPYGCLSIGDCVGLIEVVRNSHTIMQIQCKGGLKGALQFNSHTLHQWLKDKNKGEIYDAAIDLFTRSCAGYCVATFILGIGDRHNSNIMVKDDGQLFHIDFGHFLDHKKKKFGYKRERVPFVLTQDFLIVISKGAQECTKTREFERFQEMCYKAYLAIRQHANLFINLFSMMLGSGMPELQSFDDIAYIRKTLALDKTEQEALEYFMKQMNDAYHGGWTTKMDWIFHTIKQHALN
From the text: as §1

[3] = target: T3, panel of 442 kinases (Homo sapiens, UniProt P54762)
T3 construct: purchased KINOMEscan
T3 sequence (P54762 18-984): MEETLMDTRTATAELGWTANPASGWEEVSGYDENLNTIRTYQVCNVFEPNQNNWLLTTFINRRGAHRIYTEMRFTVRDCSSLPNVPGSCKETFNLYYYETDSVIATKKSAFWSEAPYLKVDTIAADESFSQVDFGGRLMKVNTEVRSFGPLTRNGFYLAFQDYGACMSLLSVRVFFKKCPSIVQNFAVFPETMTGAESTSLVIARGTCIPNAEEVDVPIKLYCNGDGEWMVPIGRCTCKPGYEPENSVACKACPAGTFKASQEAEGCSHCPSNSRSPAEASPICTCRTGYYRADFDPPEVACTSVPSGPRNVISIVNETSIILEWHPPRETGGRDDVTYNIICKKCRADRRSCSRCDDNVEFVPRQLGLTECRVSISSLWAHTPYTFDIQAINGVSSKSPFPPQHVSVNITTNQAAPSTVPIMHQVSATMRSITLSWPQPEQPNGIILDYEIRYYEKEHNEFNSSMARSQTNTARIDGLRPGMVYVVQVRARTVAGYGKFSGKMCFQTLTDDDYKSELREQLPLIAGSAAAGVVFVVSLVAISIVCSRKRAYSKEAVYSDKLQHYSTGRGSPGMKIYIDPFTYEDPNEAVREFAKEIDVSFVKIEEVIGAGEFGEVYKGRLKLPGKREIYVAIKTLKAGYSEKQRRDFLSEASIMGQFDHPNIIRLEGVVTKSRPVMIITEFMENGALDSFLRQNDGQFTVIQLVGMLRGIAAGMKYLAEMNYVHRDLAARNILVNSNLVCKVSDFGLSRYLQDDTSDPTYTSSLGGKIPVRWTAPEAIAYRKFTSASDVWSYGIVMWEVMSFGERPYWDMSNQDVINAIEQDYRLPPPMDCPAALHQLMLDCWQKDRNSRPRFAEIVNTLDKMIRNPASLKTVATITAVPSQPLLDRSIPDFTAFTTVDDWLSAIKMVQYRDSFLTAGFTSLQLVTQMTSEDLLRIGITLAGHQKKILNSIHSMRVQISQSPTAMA
From the text: as §1

T1 sequence (Q96GD4 whole entry): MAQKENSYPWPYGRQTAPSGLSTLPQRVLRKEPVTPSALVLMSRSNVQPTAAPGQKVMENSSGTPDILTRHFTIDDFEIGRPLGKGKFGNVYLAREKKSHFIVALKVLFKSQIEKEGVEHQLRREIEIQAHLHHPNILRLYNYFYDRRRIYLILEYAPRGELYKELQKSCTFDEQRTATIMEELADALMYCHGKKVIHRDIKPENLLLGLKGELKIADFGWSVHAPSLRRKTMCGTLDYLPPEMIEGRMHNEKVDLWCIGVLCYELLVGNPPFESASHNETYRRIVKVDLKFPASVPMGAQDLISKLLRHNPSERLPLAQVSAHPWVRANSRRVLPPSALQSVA

## CCOc1cc(C(=O)N2CCC(N3CCN(C)CC3)CC2)ccc1Nc1ncc2c(n1)N(C1CCCC1)c1ccccc1C(=O)N2C [Compound 26]
[1]
  KINOMEscan: AURKB: 100
[2]
  KINOMEscan: PIK3CA(H1047Y): 76
[3]
  KINOMEscan: EPHB1: 95

## COc1cc(C(=O)N2CCC(N3CCN(C)CC3)CC2)ccc1Nc1ncc2c(n1)N(C1CCCC1)c1ccccc1C(=O)N2C [Compound 25, 11-cyclopentyl-2-((2-methoxy-4-(4-(4-methylpiperazin-1-yl)piperidine-1-carbonyl)phenyl)amino)-5-methyl-5H-benzo[e]pyrimido[5,4-b][1,4]diazepin-6(11H)-one]
[1]
  KINOMEscan: AURKB: 60
[2]
  KINOMEscan: PIK3CA(H1047Y): 100
[3]
  KINOMEscan: EPHB1: 95

## COc1cc(C(=O)N2CCC(N3CCN(C)CC3)CC2)ccc1Nc1ncc2c(n1)N1CCc3cccc(c31)C(=O)N2C [Compound 24]
[2]
  KINOMEscan: PIK3CA(H1047Y): 68

## COc1cc(C(=O)N2CCC(N3CCN(C)CC3)CC2)ccc1Nc1ncc2c(n1)N(C)c1ccccc1C(=O)N2C [15 (LRRK2-IN-1)]
[1]
  KINOMEscan: AURKB: 38
[2]
  KINOMEscan: PIK3CA(H1047Y): 71
[3]
  KINOMEscan: EPHB1: 98
